US20230124374A1, “COMPOSITIONS AND METHODS FOR EYE HEALTH COMPRISING VERY LONG CHAIN FATTY ACIDS” (BAUSCH + LOMB IRELAND LIMITED, priority 2020, published 2023)
One block for each molecule: values may come before it.

Tests used:
[1] = repeated-dose (15 d) bioavailability study, gavage feeding of 32:6 n-3 loaded liposomes, GC-MS of tissue lipids; format: in vivo, WT mice; settings: 15 d gavage
Description: FIGS. 2A and 2B show WT mice repeated-dose bioavailability studies: (2A) Accumulation of 32:6 n-3 in mouse retina and RPE after 15 d of gavage feeding (n=6 mice/group) and (2B) Bioaccumulation of 32:6n-3 in serum, RBC, and liver after 15 d of gavage feeding. […] Data are presented as mean±SEM (***P<0.005; **P<0.01; N.S.: not significant; N.D.: not detectable).
(§1) On the other hand, 32:6 n-3 remained undetectable in liver, brain, and red blood cell (RBC) membranes throughout the 24 h period. Longer-term absorption was studied by gavage feeding VLCPUFA-loaded liposomes (0.1 mL) to WT (22±3 g) and conditional KO mice developed with an intention to ablate Elov14 expression completely in both rods and cones (E4cKO mice) (23±3 g) for 15 d with 0, 1, and 2 mg/d 32:6 n-3 (n=6 mice/group). Mice were fed each morning with liposomes prepared as above containing 0 mg/d (0 mg/kg BW), 1 mg/d (40 mg/kg BW), or 2 mg/d (80 mg/kg BW) of 32:6 n-3. Mice were killed at the end of the experiments, and retina, RPE, liver, serum, RBCs, and brain tissues were harvested, extracted for lipids, and analyzed by GC-MS.

[2] = long-term uptake of 32:6 n-3 in Elov14 rod-cone conditional KO mice, 15 d gavage feeding; format: in vivo, E4cKO mice; settings: 2 mg/d
Description: FIGS. 4A and 4B show long-term uptake of 32:6n-3 (2 mg/d per mouse) in Elov14 rod-cone conditional KO (E4cKO) mice: (4A) Accumulation of 32:6 n-3 in E4cKO mouse retinas and RPE in comparison to age-matched WT mice after 15 d of gavage feeding (n=6 mice/group) and (4B) Accumulation of 32:6n-3 in liver and RBCs in E4cKO mice in comparison to age-matched WT mice after 15 d of gavage feeding. Data are presented as mean±SEM (**P<0.01; N.S.: not significant; N.D.: not detectable).
as §1
(§2) Retina and RPE were extracted for phospholipid analysis using liquid chromatography-tandem MS (LC-MS/MS), and increases in phosphatidylcholine (PC)-22:6/32:6 were detected in the retina and RPE in the supplemented WT animals (FIGS. 3A and 3B). Retinal and RPE 32:6 n-3 levels in the E4cKO mice were one-third and one-half of the levels in the age-matched WT mice, respectively (FIG. 4A).

[3] = phospholipid analysis of retina and RPE by LC-MS/MS after 15 days of gavage feeding; format: in vivo, WT mice; settings: 15 days gavage, 2 mg/day, supplemented WT animals
Description: FIGS. 3A and 3B show phospholipid analysis of wild type (WT) mice after 15 days of gavage feeding of VLCPUFA 32:6n-3 (2 mg/day): (3A) Retina and (3B) RPE. Data presented as mean±SEM (n=8 mice/group) (p values: *p<0.05; N.S.: not significant; N.D.: not detectable).
as §2

[4] = single-dose bioavailability study, gavage feeding of 32:6 n-3 loaded liposomes, GC-MS of tissue lipids; format: in vivo, wild-type (WT) C57BL/6J mice
Description: FIGS. 1A and 1B show wild-type (WT) mice single-dose bioavailability studies: (1A) Serum absorption kinetics of C32 acid (6n-3) (“32:6n-3”) after single-dose gavage feeding of 6 mg/mouse (n=4 mice/time point) and (1B) retina and RPE uptake of 32:6 n-3 after single-dose gavage feeding. No VLCPUFAs were detected in liver, brain, or RBC membranes at any time point. Data are presented as mean±SEM (***P<0.005; **P<0.01; *P<0.05).
Three month old wild-type (WT) C57BL/6J mice (22±3 g) were each gavage fed 6 mg per day of C32 acid (6n-3) (“32:6 n-3”) loaded VLCPUFA liposomes (0.1 mL) (250 mg/kg body weight) prepared as disclosed in Gorusupudi et al. PNAS 118(6), e2017739118 (2021), which is incorporated herein by reference in its entirety. The mice were killed 0, 2, 4, 8, and 24 h after gavage (n=4 mice/time interval) to harvest the blood and other tissues. Eyes were dissected under a microscope to separate the retina from the RPE. One pair of retinas/mouse was used for lipid extraction, and blood was centrifuged for 5 minutes at 7,500 rpm to separate serum from RBCs. Serum, RBCs, brain, liver, retina, and RPE were used for lipid extractions and GC-MS analysis.
as §1

[5] = levels as high as 800.0 mg; cited from earlier work
[6] = 32:6 n-3-fed groups versus control mice (undetectable)
[7] = versus undetectable levels at 0 mg/d
[8] = single gavage dose 6 mg/mouse, 4 to 8 h after gavage
[9] = single gavage dose 6 mg/mouse, throughout the 24 h period

VLCPUFAs in the brain [1]: no VLCPUFAs were ever detectable
total retinal VLCPUFAs ([1]; 1 mg/d group): 0.535±0.06%
total retinal VLCPUFAs ([1]; 2 mg/d group): 0.872±0.10%
32:6 n-3 in the liver ([1]; 2 mg/d group (only group with detectable levels)): detectable
RBC VLCPUFAs [1, 6]: significantly increased
serum VLCPUFAs [1, 6]: significantly increased
increase of C32 acid (6n-3) level in RPE versus 0 mg/d controls ([1]; both fed groups (1 and 2 mg/d)): sevenfold
increase of C32 acid (6n-3) level in the retina versus 0 mg/d controls ([1]; both fed groups (1 and 2 mg/d)): more than twofold
increase of 32:6 n-3 level in the retina relative to control-fed E4cKO mice ([2]; 8-mo-old E4cKO mice, P<0.01): nearly fivefold increase
increase of 32:6 n-3 level in the RPE relative to control-fed E4cKO mice ([2]; 8-mo-old E4cKO mice, P=0.001): 27 fold
total retinal VLCPUFAs ([2]; E4cKO mice): 0.088±0.02%
RBC 32:6 n-3 [2, 7]: became detectable
liver 32:6 n-3 [2, 7]: became detectable
phosphatidylcholine (PC)-22:6/32:6 in the RPE [3]: increases
phosphatidylcholine (PC)-22:6/32:6 in the retina [3]: increases
time after oral administration at which serum 32:6 n-3 became detectable ([4]; single gavage dose 6 mg/mouse (250 mg/kg), serum): ≤ 2 h
32:6 n-3 in the RPE [4, 8]: significant increase
32:6 n-3 in the retina [4, 8]: significant increase
32:6 n-3 in brain [4, 9]: undetectable
32:6 n-3 in liver [4, 9]: undetectable
32:6 n-3 in red blood cell (RBC) membranes [4, 9]: undetectable
Molecule: CC/C=C\C/C=C\C/C=C\C/C=C\C/C=C\C/C=C\CCCCCCCCCCCCC(=O)O [32:6 n-3, C32 acid (6n-3)]
serum 32:6 n-3 concentration course ([4]; single gavage dose 6 mg/mouse, serum, over the next 24 h): reached a lower steady-state concentration

Molecule: vitamin E
adverse effects [5]: No adverse effects
